How the values were obtained:
Format in all cases: physicochemical
Bulk and tapped density = test: Bulk and tapped density
Description: Samples were submitted to Particle Technology Labs (PTL), Downers Grove, Ill., for bulk and tapped density analyses.

[1] = BET surface area (nitrogen absorption); conditions: 11-point BET, outgassed at 40° C. under vacuum
Protocol: Surface area data were collected using nitrogen absorption on a BET Micrometics Gemini V (11-point BET analysis) analyzer. The samples were outgassed at 40° C. under vacuum for at least 2 hours. SRM 1899 and SRM 1900 were used as the calibration standards.

[2] = Particle size (Malvern MS2000); set-up: unit not given here; conditions: particle size distribution, 0.1% SPAN 85 in hexane, sonication 10 seconds, unit μm
Description: Particle size data was acquired using a Malvern Instruments MS2000 equipped with a Hydro2000 μP dispersion unit. Data was collected and analyzed with Mastersizer 2000 v. 5.1 software, using volume based measurements. NIST traceable glass beads were used as the reference standard. […] Model: general purpose; Sensitivity: normal.

[3] = Moisture absorption/desorption (DVS); conditions: for Weight gain from 5-55% RH / Weight gain from 55-95% RH: DVS adsorption phase; for Weight gain from 55-95% RH: samples did not reach equilibration; for Weight loss from 95-5% RH: DVS desorption phase; for Weight loss at 5% RH: DVS, upon equilibration to 5% RH
Protocol: Moisture absorption/desorption (DVS) data was collected on a VTI SGA-100 Vapor Sorption Analyzer. Absorption and desorption data were collected over a range of 5% to 95% relative humidity (RH) at 10% RH intervals under a nitrogen purge. Samples were not dried prior to analyses. Equilibrium criteria used for analyses were less than 0.0100% weight change in 5 minutes, with a maximum equilibrium time of 3 hours if the weight criterion was not met. Data were not corrected for the initial moisture content of the samples. NaCl and PVP were used as calibration standards.

[4] = Stability and hygroscopy of crystalline Form B compared to crystalline Form A; conditions: as compared to crystalline Form A

CS(=O)(=O)O.CS(=O)(=O)O.CS(=O)(=O)O.NCCCC(=O)OCCN1CCN(CCCN2c3ccccc3Sc3ccc(Cl)cc32)CC1 [BL-1020 MSA salt crystalline Form B, perphenazine 4-aminobutyrate trimesylate]
Bulk density (Bulk and tapped density; listed as 01BIL02-01-22): 0.16 g/mL
Tapped density (Bulk and tapped density; listed as 01BIL02-01-22): 0.25 g/mL
Bulk density (Bulk and tapped density; listed as 01BIL02-02-22): 0.16 g/mL
Tapped density (Bulk and tapped density; listed as 01BIL02-02-22): 0.24 g/mL
Bulk density (Bulk and tapped density; listed as 01BIL02-03-22): 0.18 g/mL
Tapped density (Bulk and tapped density; listed as 01BIL02-03-22): 0.26 g/mL
Bulk density (Bulk and tapped density; listed as 01BIL02-04-22): 0.13 g/mL
Tapped density (Bulk and tapped density; listed as 01BIL02-04-22): 0.22 g/mL
Bulk density (Bulk and tapped density; listed as 06-01915-3): 0.18 g/mL
Tapped density (Bulk and tapped density; listed as 06-01915-3): 0.24 g/mL
BET surface area ([1]; listed as 01BIL02-01-22): 4.77 m^2/g
BET surface area ([1]; listed as 01BIL02-02-22): 4.55 m^2/g
BET surface area ([1]; listed as 01BIL02-03-22): 4.93 m^2/g
BET surface area ([1]; listed as 01BIL02-04-22): 4.57 m^2/g
BET surface area ([1]; listed as 01BIL02-05-26): 2.67 m^2/g
BET surface area ([1]; listed as 06-01915-3): 4.84 m^2/g
d10 ([2]; listed as 01BIL02-01-22): 2.1
d50 ([2]; listed as 01BIL02-01-22): 5.8
d90 ([2]; listed as 01BIL02-01-22): 18.3
d10 ([2]; listed as 01BIL02-02-22): 2.1
d50 ([2]; listed as 01BIL02-02-22): 6.1
d90 ([2]; listed as 01BIL02-02-22): 22.5
d10 ([2]; listed as 01BIL02-03-22): 2.1
d50 ([2]; listed as 01BIL02-03-22): 6.2
d90 ([2]; listed as 01BIL02-03-22): 19.7
d10 ([2]; listed as 01BIL02-04-22): 2.3
d50 ([2]; listed as 01BIL02-04-22): 6.8
d90 ([2]; listed as 01BIL02-04-22): 21.8
d10 ([2]; listed as 06-01915-3): 3.8
d50 ([2]; listed as 06-01915-3): 9.3
d90 ([2]; listed as 06-01915-3): 41.8
Weight gain from 5-55% RH ([3]; listed as 01BIL02-01-22): 0.4%
Weight gain from 5-55% RH ([3]; listed as 01BIL02-02-22): 0.4%
Weight gain from 5-55% RH ([3]; listed as 01BIL02-03-22): 0.4%
Weight gain from 5-55% RH ([3]; listed as 01BIL02-04-22): 0.4%
Weight gain from 5-55% RH ([3]; listed as 01BIL02-05-26): 0.4%
Weight gain from 5-55% RH ([3]; listed as 06-01915-3): 0.6%
Weight gain from 55-95% RH ([3]; listed as 01BIL02-01-22): 71.6%
Weight gain from 55-95% RH ([3]; listed as 01BIL02-02-22): 69.8%
Weight gain from 55-95% RH ([3]; listed as 01BIL02-03-22): 72.7%
Weight gain from 55-95% RH ([3]; listed as 01BIL02-04-22): 70.5%
Weight gain from 55-95% RH ([3]; listed as 01BIL02-05-26): 68.9%
Weight gain from 55-95% RH ([3]; listed as 06-01915-3): 71.6%
Weight loss from 95-5% RH ([3]; listed as 01BIL02-01-22): 67.0%
Weight loss from 95-5% RH ([3]; listed as 01BIL02-02-22): 64.8%
Weight loss from 95-5% RH ([3]; listed as 01BIL02-03-22): 67.6%
Weight loss from 95-5% RH ([3]; listed as 01BIL02-04-22): 66.0%
Weight loss from 95-5% RH ([3]; listed as 01BIL02-05-26): 64.8%
Weight loss from 95-5% RH ([3]; listed as 06-01915-3): 66.9%
Weight loss at 5% RH ([3]; listed as 01BIL02-01-22): 0.1%
Weight loss at 5% RH ([3]; listed as 01BIL02-02-22): 0.1%
Weight loss at 5% RH ([3]; listed as 01BIL02-03-22): 0.1%
Weight loss at 5% RH ([3]; listed as 01BIL02-04-22): 0.1%
Weight loss at 5% RH ([3]; listed as 01BIL02-05-26): 0.3%
Weight loss at 5% RH ([3]; listed as 06-01915-3): 0.6%
Hygroscopy [4]: reduced hygroscopy
Stability [4]: higher stability

— patent US8377929B2, “Crystalline forms of the tri-mesylate salt of perphenazine-GABA and process of producing the same” (Ramot at Tel-Aviv University Ltd., priority 2010, dated 2013)
